Experimental data reported in patent US11254640B2, “N-substituted indoles and other heterocycles for treating brain disorders” (The Regents of the University of California, priority 2019, dated 2022).
“Also recorded” adds a separate entry of the source.

Tests used:
5HT2A sensor [1] = experiment: 5HT2A sensor assay, antagonist mode (sLight1.3s HEK293T stable line); type: cell-based; details: 10 μM of compound (FIG. 13)
Experimental: In some embodiments, the 5HT2A sensor assay is in an antagonist mode.
(§1) 5HT2A Sensor Assays. HEK293T (ATCC) 5HT2A sensor stable line (sLight1.3s) was generated via lentiviral transduction of HIV-EF1α-sLight1.3 and propagated from a single colony. Lentivirus was produced using 2nd generation lentiviral plasmids pHIV-EF1α-sLight1.3, pHCMV-G, and pCMV-deltaR8.2.
(§2) For the screening of the 41 compounds, sLight1.3s cells were plated in 96-well plates at a density of 40000 24-hours prior to imaging. On the day of imaging, compounds solubilized in DMSO were diluted from the 100 mM stock solution to working concentrations of 1 mM, 100 μM and 1 μM with a DMSO concentration of 1%. Immediately prior to imaging, cells growing in DMEM (Gibco) were washed 2× with HBSS (Gibco) and in agonist mode 180 μL of HBSS or in antagonist mode 160 μL of HBSS was added to each well after the final wash. For agonist mode, images were taken before and after the addition of the 20 μL compound working solution into the wells containing 180 μL HBSS. This produced final compound concentrations of 100 μM, 10 μM and 100 nM with a DMSO concentration of 0.1%. For antagonist mode, images were taken before and after addition of 20 μL of 900 nM 5-HT and again after 20 μL of the compound working solutions to produce final concentrations of 100 nM for 5HT and 100 μM, 10 μM and 100 nM for the compounds with a DMSO concentration of 0.1%. Each compound was tested in triplicates (3 wells) for each concentration (100 μM, 10 μM and 100 nM). Additionally, within each plate, 100 nM 5HT and 0.1% DMSO controls were also imaged.
(§3) Imaging was performed using the Leica DMi8 inverted microscope with a 40× objective using the FITC preset with an excitation of 460 nm and emission of 512-542 nm. For each well, the cellular membrane where the 5HT2A sensor is targeted was autofocused using the adaptive focus controls and 5 images from different regions within the well were taken with each image processed from a 2×2 binning.
(§4) For data processing, the membranes from each image was segmented and analyzed using a custom algorithm written in MATLAB producing a single raw fluorescence intensity value. For each well the 5 raw fluorescence intensity values generated from the 5 images were averaged and the change in fluorescence intensity (dFF) was calculated as: dFF=(Fsat−Fapo)/Fapo
(§5) For both agonist and antagonist modes, the fluorescence intensity values before compound addition in HBSS only were used as the Fapo values while the fluorescence intensity values after compound addition were used as the Fsat values.
(§6) For agonist mode, data are as percent activation relative to 5HT, where 0 is the average of the DMSO wells and 100 is the average of the 100 uM 5HT wells. For antagonist mode, the inactivation score was calculated as: Inactivation score=(dFFF(Compound+5HT)−dFF(5HT))/dFF(5HT)

5HT2A sensor [2] = experiment: 5HT2A sensor assay, agonist mode (sLight1.3s HEK293T stable line); type: cell-based; details: for activation of 5HT2A sensor assay in agonist mode at 10 μM: 10 μM of compound (FIG. 11)
Experimental: In some embodiments, hallucinogenic potential of a compound of the present invention is determined in vitro. In some embodiments, hallucinogenic potential of a compound of the present invention is determined using a 5HT2A sensor assay. In some embodiments, the 5HT2A sensor assay is in an agonist mode or an antagonist mode. In some embodiments, the 5HT2A sensor assay is in an agonist mode.
as §1, §2, §3, §4, §5, §6

cortical neurons = experiment: Dendritogenesis assay, Sholl analysis; type: cell-based, rat; details: 10 μM; for Emax at 10 µM: Rattus norvegicus, Cortical neurone, Nmax with vehicle (DMSO) = 0% and ketamine = 100%, read-out: % efficacy in sholls; for dendritic arbor complexity / neuronal growth (Nmax of Sholl plots): cortical neurons
Text: Dendritogenesis Assays. Phenotypic screening has historically proven more successful than target-based approaches for identifying drugs with novel mechanisms of action. Having established a simple and robust method for accessing isoDMT analogs, tested next was their ability to increase dendritic arbor complexity in cultures of cortical neurons using a phenotypic assay. Following treatment, neurons were fixed and visualized using an antibody against MAP2—a cytoskeletal protein localized to the somatodendritic compartment of neurons. Sholl analysis was then performed, and the maximum number of crossings (Nmax) was used as a quantitative metric of dendritic arbor complexity. For statistical comparisons between specific compounds, the raw Nmax values were compared. Percent efficacies were determined by setting the Nmax values for the vehicle (DMSO) and positive (ketamine) controls equal to 0% and 100%, respectively.
Animals. For the dendritogenesis experiments, timed pregnant Sprague Dawley rats were obtained from Charles River Laboratories (Wilmington, Mass.). For the head-twitch response assay, male and female C57BL/6J mice were obtained from Jackson Laboratory (Sacramento, Calif.). Mice were housed in a temperature and humidity-controlled room maintained on a 12-h light/dark cycle in groups of 4-5 (same sex). Animals weighed between 17 and 30 g at the time of the experiments. All experimental procedures involving rodents were approved by the UC Davis Institutional Animal Care and Use Committee (IACUC) and adhered to principles described in the National Institutes of Health Guide for the Care and Use of Laboratory Animals. The University of California, Davis and the University of California, San Francisco are accredited by the Association for Assessment and Accreditation of Laboratory Animal Care International (AAALAC).
Dendritogenesis—Sholl Analysis. Dendritogenesis experiments were performed following a previously published method with slight modifications. Neurons were plated in 96-well format (200 μL of media per well) at a density of approximately 15,000 cells/well in Neurobasal (Life Technologies) containing 1% penicillin-streptomycin, 10% heat-inactivated fetal bovine serum, and 0.5 mM glutamine. After 24 h, the medium was replaced with Neurobasal containing 1× B27 supplement (Life Technologies), 1% penicillin-streptomycin, 0.5 mM glutamine, and 12.5 μM glutamate. After 3 days in vitro (DIV3), the cells were treated with compounds. All compounds tested in the dendritogenesis assays were treated at 10 μM unless noted otherwise. Stock solutions of the compounds in DMSO were first diluted 100-fold in Neurobasal before an additional 10-fold dilution into each well (total dilution=1:1000; 0.1% DMSO concentration). Treatments were randomized. After 1 h, the media was removed and replaced with new Neurobasal media containing 1× B27 supplement, 1% penicillin-streptomycin, 0.5 mM glutamine, and 12.5 μM glutamate. The cells were allowed to grow for an additional 71 h. At that time, neurons were fixed by removing 80% of the media and replacing it with a volume of 4% aqueous paraformaldehyde (Alfa Aesar) equal to 50% of the working volume of the well. Then, the cells were incubated at room temperature for 20 min before the fixative was aspirated and each well washed twice with DPBS. Cells were permeabilized using 0.2% Triton X-100 (ThermoFisher) in DPBS for 20 minutes at room temperature without shaking. Plates were blocked with antibody diluting buffer (ADB) containing 2% bovine serum albumin (BSA) in DPBS for 1 h at room temperature. Then, plates were incubated overnight at 4° C. with gentle shaking in ADB containing a chicken anti-MAP2 antibody (1:10,000; EnCor, CPCA-MAP2). The next day, plates were washed three times with DPBS and once with 2% ADB in DPBS. […]

Row | Compound | activation of 5HT2A sensor assay in agonist mode at 10 μM (5HT2A sensor [2]) | Emax at 10 µM (cortical neurons) [%] | further results
1 | CCN(CC)C(=O)[C@@H]1C=C2c3cccc4[nH]c(Br)c(c34)C[C@H]2N(C)C1 [BOL148, reference compound] | do not activate the 5HT2A sensor assay in agonist mode | – | competition with 5HT binding to 5HT2A, antagonist mode sensor assay at 10 μM (5HT2A sensor [1]): compete with 5HT binding to 5HT2A
2 | COc1cc(CC(C)N)c(OC)cc1I (stereo not shown) [DOI, reference compound] | activate the 5HT2A sensor assay in agonist mode | – | –
3 | CN(C)CCc1c[nH]c2ccccc12 [Example 1, N,N-dimethyltryptamine, reference compound] | activate the 5HT2A sensor assay in agonist mode | 79 | –
4 | CCN(CC)CCc1c[nH]c2cc(F)ccc12 [Example 6-F-DET, reference compound] | do not activate the 5HT2A sensor assay in agonist mode | – | competition with 5HT binding to 5HT2A, antagonist mode sensor assay at 10 μM (5HT2A sensor [1]): compete with 5HT binding to 5HT2A
5 | CN(C)CCn1ccc2c(OCc3ccccc3)cccc21 [Example 8, 2-(4-(benzyloxy)-1H-indol-1-yl)-N,N-dimethylethan-1-amine] | – | 38 | –
6 | CN(C)CCn1ccc2cc(OCc3ccccc3)ccc21 [Example 9, 2-(5-(benzyloxy)-1H-indol-1-yl)-N,N-dimethylethan-1-amine] | – | 78 | –
7 | CN(C)CCn1ccc2ccc(OCc3ccccc3)cc21 [Example 10, 2-(6-(benzyloxy)-1H-indol-1-yl)-N,N-dimethylethan-1-amine] | – | 65 | –
8 | CN(C)CCn1ccc2cccc(OCc3ccccc3)c21 [Example 11, 2-(7-(benzyloxy)-1H-indol-1-yl)-N,N-dimethylethan-1-amine] | – | 131 | –
9 | CN(C)CCn1ccc2c(F)cccc21 [Example 12, 2-(4-fluoro-1H-indol-1-yl)-N,N-dimethylethan-1-amine] | – | 37 | –
10 | CN(C)CCn1ccc2cc(F)ccc21 [Example 13, 2-(5-fluoro-1H-indol-1-yl)-N,N-dimethylethan-1-amine] | – | 75 | dendritic arbor complexity / neuronal growth (Nmax of Sholl plots) (cortical neurons): performed identically to 28 and 29
11 | CN(C)CCn1ccc2cccc(F)c21 [Example 15, 2-(7-fluoro-1H-indol-1-yl)-N,N-dimethylethan-1-amine] | – | 85 | –
12 | CN(C)CCn1ccc2cc(F)c(F)cc21 [Example 17, 2-(5,6-difluoro-1H-indol-1-yl)-N,N-dimethylethan-1-amine] | – | 84 | –
13 | CN(C)CCn1ccc2c(F)cc(F)cc21 [Example 18, 2-(4,6-difluoro-1H-indol-1-yl)-N,N-dimethylethan-1-amine] | – | 62 | –
14 | CN(C)CCn1cc(C(=O)C(=O)N(C)C)c2ccccc21 [Example 21, 2-(1-(2-(dimethylamino)ethyl)-1H-indol-3-yl)-N,N-dimethyl-2-oxoacetamide] | – | 72 | dendritic arbor complexity / neuronal growth (Nmax of Sholl plots) (cortical neurons): well tolerated
15 | CN(C)CCn1cccc1 [Example 23, N,N-dimethyl-2-(1H-pyrrol-1-yl)ethan-1-amine] | – | 64 | dendritic arbor complexity / neuronal growth (Nmax of Sholl plots) (cortical neurons): minimal effect on the ability of these molecules to promote neuronal growth
16 | CC(C)CCn1ccc2ccccc21 [Example 25, 1-isopentyl-1H-indole] | – | 17 | dendritic arbor complexity / neuronal growth (Nmax of Sholl plots) (cortical neurons): did not promote dendritogenesis
17 | CN(C)CCc1cn(C)c2ccccc12 [Example 27, N,N-dimethyl-2-(1-methyl-1H-indol-3-yl)ethan-1-amine, reference compound] | – | 73 | dendritic arbor complexity / neuronal growth (Nmax of Sholl plots) (cortical neurons): increase dendritic arbor complexity to a comparable extent as DMT (1); also recorded: increased dendritic arbor complexity to a comparable extent as 1
18 | CN(C)CCc1c[nH]c2cc(F)ccc12 [Example 29, 2-(6-fluoro-1H-indol-3-yl)-N,N-dimethylethan-1-amine, reference compound] | – | 81 | –
19 | COc1ccc2c(ccn2C[C@@H](C)N(C)C)c1 [Example 32, (R)-1-(5-methoxy-1H-indol-1-yl)-N,N-dimethylpropan-2-amine] | – | 88 | –
20 | C[C@H](Cn1ccc2cc(F)ccc21)N(C)C [Example 33, (R)-1-(5-fluoro-1H-indol-1-yl)-N,N-dimethylpropan-2-amine] | – | 65 | –
21 | O=C(c1ccc(F)cc1)C1CCN(CCn2c(=O)[nH]c3ccccc3c2=O)CC1 [Ketanserin, reference compound] | do not activate the 5HT2A sensor assay in agonist mode | – | competition with 5HT binding to 5HT2A, antagonist mode sensor assay at 10 μM (5HT2A sensor [1]): compete with 5HT binding to 5HT2A
22 | CNC(C)Cc1ccc2c(c1)OCO2 [L-MDMA, reference compound] | do not activate the 5HT2A sensor assay in agonist mode | – | –
23 | CCN(CC)C(=O)[C@@H]1C=C2c3cccc4[nH]cc(c34)C[C@H]2N(C)C1 [LSD, lysergic acid diethylamide, reference compound] | activate the 5HT2A sensor assay in agonist mode | – | activation of 5HT2A sensor assay in agonist mode (dose response) (5HT2A sensor [2]; dose response (FIG. 10)): activate
24 | CN[C@H](C)Cc1ccc2c(c1)OCO2 [R-MDMA, reference compound] | do not activate the 5HT2A sensor assay in agonist mode | – | –
